Data on 31 compounds can be found in patent US6610677B2, “Pyrazole compounds useful as protein kinase inhibitors” (Vertex Pharmaceuticals Incorporated, priority 2000, dated 2003).

Each structure is given as a SMILES string.

The target of the experiment is T1, GSK-3β (AA 1-420) (Homo sapiens, UniProt P49841).
T1 construct: GSK-3β (AA 1-420)
T1 sequence (P49841 whole entry, the tested form may be a part): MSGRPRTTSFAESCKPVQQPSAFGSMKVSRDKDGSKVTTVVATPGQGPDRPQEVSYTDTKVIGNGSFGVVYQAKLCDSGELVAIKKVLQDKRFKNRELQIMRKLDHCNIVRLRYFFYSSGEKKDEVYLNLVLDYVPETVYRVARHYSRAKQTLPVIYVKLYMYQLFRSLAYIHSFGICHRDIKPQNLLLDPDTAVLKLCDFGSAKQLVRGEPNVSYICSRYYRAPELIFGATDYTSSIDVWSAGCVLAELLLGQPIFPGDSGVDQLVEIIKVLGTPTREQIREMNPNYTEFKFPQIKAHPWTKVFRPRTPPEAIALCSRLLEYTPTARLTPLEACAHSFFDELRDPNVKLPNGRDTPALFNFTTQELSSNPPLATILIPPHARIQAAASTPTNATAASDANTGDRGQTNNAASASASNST
Nature of the experiment: Ki determination for the inhibition of GSK-3 (coupled enzyme system). Type of experiment: biochemical. The note with it: 20 μM ATP, 300 μM peptide, 20 nM GSK-3β, 30° C. The method, then: Compounds were screened for their ability to inhibit GSK-3β (AA 1-420) activity using a standard coupled enzyme system (Fox et al. (1998) Protein Sci. 7, 2249). Reactions were carried out in a solution containing 100 mM HEPES (pH 7.5), 10 mM MgCl2, 25 mM NaCl, 300 μM NADH, 1 mM DTT and 1.5% DMSO. Final substrate concentrations in the assay were 20 μM ATP (Sigma Chemicals, St Louis, Mo.) and 300 μM peptide (HSSPHQS(PO3H2)EDEEE, American Peptide, Sunnyvale, Calif.). Reactions were carried out at 30° C. and 20 nM GSK-3β. Final concentrations of the components of the coupled enzyme system were 2.5 mM phosphoenolpyruvate, 300 μM NADH, 30 μg/ml pyruvate kinase and 10 μg/ml lactate dehydrogenase.
An assay stock buffer solution was prepared containing all of the reagents listed above with the exception of ATP and the test compound of interest. The assay stock buffer solution (175 μl) was incubated in a 96 well plate with 5 μl of the test compound of interest at final concentrations spanning 0.002 μM to 30 μM at 30° C. for 10 min. Typically, a 12 point titration was conducted by preparing serial dilutions (from 10 mM compound stocks) with DMSO of the test compounds in daughter plates. The reaction was initiated by the addition of 20 μl of ATP (final concentration 20 μM). Rates of reaction were obtained using a Molecular Devices Spectramax plate reader (Sunnyvale, Calif.) over 10 min at 30° C. The Ki values were determined from the rate data as a function of inhibitor concentration.
By Ki is commonly meant the dissociation constant of the complex between target and ligand, obtained from inhibition or displacement. Lower therefore signals higher affinity. Turning to `Clc1ccccc1-c1nc2c(c(Nc3n[nH]c4ccccc34)n1)CCC2` [II-116, [2-(2-Chloro-phenyl)-6,7-dihydro-5H-cyclopentapyrimidin-4-yl]-(1H-indazol-3-yl)-amine], the Ki is under 100 nM.

Consider `Fc1cccc2c(Nc3nc(-c4ccccc4Cl)nc4c3CCC4)n[nH]c12` [II-117, [2-(2-Chloro-phenyl)-6,7-dihydro-5H-cyclopentapyrimidin-4-yl]-(7-fluoro-1H-indazol-3-yl)-amine], for which the Ki is under 100 nM.

On to `Fc1cc(F)c2[nH]nc(Nc3nc(-c4ccccc4Cl)nc4c3CCC4)c2c1` [II-118, [2-(2-Chloro-phenyl)-6,7-dihydro-5H-cyclopentapyrimidin-4-yl]-(5,7-difluoro-1R-indazol-3-yl)-amine], for which the Ki was under 100 nM.

The compound `FC(F)(F)c1ccccc1-c1nc2c(c(Nc3n[nH]c4ccccc34)n1)CCCCCC2` [II-119, (1H-Indazol-3-yl)-[2-(2-trifluoromethyl-phenyl)-5,6,7,8,9,10-hexahydro-cyclooctapyrimidin-4-yl]-amine] yielded a Ki of under 100 nM.

Turning to `Fc1cccc2c(Nc3nc(-c4ccccc4C(F)(F)F)nc4c3CCCCCC4)n[nH]c12` [II-120, (7-Fluoro-1H-indazol-3-yl)-[2-(2-trifluoromethyl-phenyl)-5,6,7,8,9,10-hexahydro-cyclooctapyrimidin-4-yl]-amine], the Ki is under 100 nM.

`Fc1cc(F)c2[nH]nc(Nc3nc(-c4ccccc4C(F)(F)F)nc4c3CCCCCC4)c2c1` [II-121, (5,7-Difluoro-1H-indazol-3-yl)-[2-(2-trifluoromethyl-phenyl)-5,6,7,8,9,10-hexahydro-cyclooctapyrimidin-4-yl]-amine] returned a Ki of under 100 nM.

As for `Fc1ccc2c(Nc3nc(-c4ccccc4C(F)(F)F)nc4ccccc34)n[nH]c2c1` [II-124, (6-Fluoro-1H-indazol-3-yl)-[2-(2-trifluoromethyl-phenyl)-quinazolin-4-yl]-amine], the Ki is under 100 nM.

As for `COC(=O)c1ccc2[nH]nc(Nc3nc(-c4ccccc4C(F)(F)F)nc4ccccc34)c2c1` [II-125, 3-[2-(2-Trifluoromethyl-phenyl)-quinazolin-4-ylamino]-1H-indazole-5-carboxylic acid methyl ester], the Ki was under 100 nM.

Turning to `Cc1cc(Nc2nc(-c3cccc4ccccc34)nc3ccccc23)n[nH]1` [II-208, (5-Methyl-2H-pyrazol-3-yl)-[2-(2-naphthyl-1-yl)-quinazolin-4-yl]-amine], the Ki was under 100 nM.

`Cc1cc(Nc2nc(-c3ccccc3)nc3c2CCCCC3)n[nH]1` [III-8, (5-Methyl-2H-pyrazol-3-yl)-(2-phenyl-6,7,8,9-tetrahydro-5H-cycloheptapyrimidin-4-yl)-amine] gave an inhibition constant (Ki) of under 100 nM.

The compound `Cc1cc(Nc2nc(-c3ccncc3)nc3ccc(Cl)cc23)[nH]n1` [III-29, (6-Chloro-2-pyridin-4-yl-quinazolin-4-yl)-(5-methyl-2H-pyrazol-3-yl)-amine] had a Ki of 100 to 1000 nM.

`Cc1cc(Nc2nc(-c3ccc4c(c3)OCO4)nc3ccccc23)[nH]n1` [III-43, (2-Benzo[1,3]dioxol-5-yl-quinazolin-4-yl)-(5-methyl-2H-pyrazol-3-yl)-amine] showed a Ki of 100 to 1000 nM.

As for `Cc1cc(Nc2nc(-c3ccsc3)nc3ccccc23)[nH]n1` [III-62, (5-Methyl-2H-pyrazol-3-yl)-(2-thiophen-3-yl-quinazolin-4-yl)-amine], the Ki was under 100 nM.

As to `CC(C)NC(=O)c1cc(Nc2nc(-c3ccccc3)nc3ccccc23)[nH]n1` [III-81], the Ki was 1000 to 20000 nM.

`COCCNC(=O)c1cc(Nc2nc(-c3ccccc3)nc3ccccc23)[nH]n1` [III-83] gave a Ki of 1000 to 20000 nM.

Compound `CCCNC(=O)c1cc(Nc2nc(-c3ccccc3)nc3ccccc23)[nH]n1` [III-88, (2-Phenyl-quinazolin-4-yl)-(5-propylcarbamoyl-2H-pyrazol-3-yl)-amine] returned a Ki of 100 to 1000 nM.

`O=C(NC1CC1)c1cc(Nc2nc(-c3ccccc3)nc3ccccc23)[nH]n1` [III-90, (5-Cyclopropylcarbamoyl-2H-pyrazol-3-yl)-(2-phenyl-quinazolin-4-yl)-amine] had an inhibitory constant (Ki) of 100 to 1000 nM.

As to `CC(C)CNC(=O)c1cc(Nc2nc(-c3ccccc3)nc3ccccc23)[nH]n1` [III-91, (5-Isobutylcarbamoyl-2H-pyrazol-3-yl)-(2-phenyl-quinazolin-4-yl)-amine], the Ki was 1000 to 20000 nM.

Consider `Cc1cccc(NC(=O)c2cc(Nc3nc(-c4ccccc4)nc4ccccc34)[nH]n2)c1` [III-94, (2-Phenyl-quinazolin-4-yl)-(5-m-tolylcarbamoyl-2H-pyrazol-3-yl)-amine], for which the Ki fell in the range of 1000 to 20000 nM.

On to `Cc1ccc(NC(=O)c2cc(Nc3nc(-c4ccccc4)nc4ccccc34)[nH]n2)cc1` [III-95, (2-Phenyl-quinazolin-4-yl)-(5-p-tolylcarbamoyl-2H-pyrazol-3-yl)-amine], for which the Ki was in the range of 1000 to 20000 nM.

Regarding `CNC(=O)c1cc(Nc2nc(-c3ccccc3)nc3ccccc23)[nH]n1` [III-96, (5-Methylcarbamoyl-2H-pyrazol-3-yl)-(2-phenyl-quinazolin-4-yl)-amine], the Ki is 1000 to 20000 nM.

`O=C(c1cc(Nc2nc(-c3ccccc3)nc3ccccc23)[nH]n1)N1CCOCC1` [III-97, [5-(Morpholine-4-carbonyl)-2H-pyrazol-3-yl]-(2-phenyl-quinazolin-4-yl)-amine] displayed a Ki of 1000 to 20000 nM.

Consider `CN1CCN(C(=O)c2cc(Nc3nc(-c4ccccc4)nc4ccccc34)[nH]n2)CC1` [III-98, [5-(1-Methylpiperazine-4-carbonyl)-2H-pyrazol-3-yl]-(2-phenyl-quinazolin-4-yl)-amine], for which the Ki fell in the range of 1000 to 20000 nM.

Compound `O=C(NCCO)c1cc(Nc2nc(-c3ccccc3)nc3ccccc23)[nH]n1` [III-99] showed a Ki of 1000 to 20000 nM.

Consider `NC(=O)c1cc(Nc2nc(-c3ccccc3)nc3ccccc23)[nH]n1` [III-100, (5-Carbamoyl-2H-pyrazol-3-yl)-(2-phenyl-quinazolin-4-yl)-amine], for which the Ki was 1000 to 20000 nM.

On to `COC(=O)c1cc(Nc2nc(N3CCCCC3)nc3ccccc23)[nH]n1` [III-122, (5-Methoxycarbonyl-2H-pyrazol-3-yl)-[2-(piperidine-1-yl)-quinazolin-4-yl]-amine], for which the Ki fell in the range of 100 to 1000 nM.

As for `O=C(c1cc(Nc2nc(N3CCCCC3)nc3ccccc23)[nH]n1)N1CCCCC1` [III-123, [5-(Piperidine-1-carbonyl)-2H-pyrazol-3-yl]-[2-(piperidine-1-yl)-quinazolin-4-yl]-amine], the Ki was in the range of 1000 to 20000 nM.

For the compound `FC(F)(F)c1ccc2[nH]nc(Nc3nc(-c4ccccc4)nc4c3CCCC4)c2c1` [III-128, (2-Phenyl-5,6,7,8-tetrahydroquinazolin-4-yl)-(5-trifluoromethyl-1H-indazol-3-yl)-amine], the Ki is under 100 nM.

The compound `Fc1cc(F)c2n[nH]c(Nc3nc(-c4ccccc4)nc4ccccc34)c2c1` [III-131, (5,7-Difluoro-1H-indazol-3-yl)-(2-phenyl-quinazolin-4-yl)-amine] showed a Ki of under 100 nM.

Compound `COc1cccc(-n2nc3c(Nc4nc(-c5ccccc5)nc5ccccc45)n[nH]c3cc2=O)c1` [III-134, [5-(3-Methoxy-phenyl)-6-oxo-5,6-dihydro-1H-pyrazolo[4,3-c]pyridazin-3-yl]-(2-phenyl-quinazolin-4-yl)-amine] gave a Ki of 100 to 1000 nM.

Take `O=c1cc2[nH]nc(Nc3nc(-c4ccccc4)nc4ccccc34)c2nn1-c1ccccc1` [III-135, (6-Oxo-5-phenyl-5,6-dihydro-1H-pyrazolo[4,3-c]pyridazin-3-yl)-(2-phenyl-quinazolin-4-yl)-amine]: the Ki is 100 to 1000 nM.
